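Results reflect a 48-hour exposure of cells in 96-well plates to compound at five concentrations. GI50 marks 50% less growth.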 Activity calls are given as the source filed them. No stated cut-off is given here; in the data, active = GI50 up to about 1.1 µM and inactive = higher.

The text below walks through data of ChEMBL document CHEMBL1201862, “PubChem BioAssay data set” (2004).

Common to all, as to test: inhibition of tumour cell growth, NCI panel, 48 h
The subject of test [1] is SF-295.
Test [2] deals with MDA-MB-435.
Test [3] deals with HL-60.
Test [4] has as its system NCI-H23.
Test [5] concerns HCC 2998.
Test [6] deals with Malme-3M.
Test [7] concerns PC-3.
In test [8] the test system is MDA-N.
The test system of test [9] is SK-MEL-28.
In test [10] the test system is DU-145.
Test [11] deals with NCI-H522.
The subject of test [12] is RXF 393.
For test [13], the system named is SNB-75.
The subject of test [14] is SR.
In test [15] the test system is HOP-62.
Test [16] has as its system SF-268.
The subject of test [17] is CAKI-1.
The subject of test [18] is HCT-116.
Test [19] relates to OVCAR-8.
Test [20] concerns UACC-257.

For the compound `CCCC(=O)Nc1cn(COC)c(C(=O)N2C[C@@H]3C[C@]34C2=CC(=O)c2[nH]cc(C)c24)n1`, the GI50 in [1] was 15.6 µM (inactive); in [2] it was 9.23 µM (inactive); in [3], 1.07 µM (active); in test [4] it was 2.9 µM (inactive); in test [5], 5.31 µM (inactive); in test [6], 1.72 µM (inactive). For the same compound, the GI50 in [7] is 6.81 µM (inactive); in [8], 9.29 µM (inactive); in [9] it was 14.5 µM (inactive); in [10], 1.53 µM (inactive); in test [11] it was 3.28 µM (inactive); in test [12], 2.57 µM (inactive). In addition, the GI50 in [13] is 10.2 µM (inactive); in test [14] it was 0.24 µM (active); in test [15] it was 13.6 µM (inactive); in test [16], 5.31 µM (inactive); in [17], 1.91 µM (inactive); in test [18], 7.21 µM (inactive). Further, the GI50 was 4.23 µM (inactive) in test [19] and 8.13 µM (inactive) in test [20].

For the compound `COc1ccc(/C=C2\CN(C)C/C(=C\c3ccc(OC)cc3)C2=O)cc1`, the GI50 in test [1], in test [2], in [3], in [4], in test [5] and in test [6] was > 100 µM (inactive) in each case. The GI50 in [7], in test [8], in test [9], in test [10], in [11] and in test [12] was > 100 µM (inactive) in each case. The GI50 in [13], in [14], in [15], in test [16], in test [17] and in [18] was > 100 µM (inactive) each time.

On to `CO[C@H]1O[C@@H]2CO[C@@H](c3ccccc3)O[C@H]2[C@@H]2CC=CCC[C@]12O`, for which the GI50 is 74.5 µM (inactive) in [1]; 45.7 µM (inactive) in test [2]; 24.8 µM (inactive) in test [3]; 36.6 µM (inactive) in [4]; 18.5 µM (inactive) in test [5]; 12.6 µM (inactive) in test [6]. Further, the GI50 in test [7] is 40.9 µM (inactive); in test [8] it was 50.9 µM (inactive); in test [9] it was > 100 µM (inactive); in test [10] it was > 100 µM (inactive); in [11], 16.5 µM (inactive); in test [12], 62.1 µM (inactive). For the same compound, the GI50 in test [13] is > 100 µM (inactive); in test [14] it was 30.8 µM (inactive); in [15], > 100 µM (inactive); in test [16], 21.8 µM (inactive); in test [17] it was > 100 µM (inactive); in test [18], 30.1 µM (inactive). The GI50 in test [19] was 73.1 µM (inactive); in test [20], 35.6 µM (inactive).

As to `C=C1C(=O)O[C@@H]2C[C@@H](C)[C@@H]3C=CC(=O)[C@@]3(C)[C@@H](OC(=O)CCCC(=O)O[C@H]3[C@@H]4C(=C)C(=O)O[C@@H]4C[C@@H](C)[C@@H]4C=CC(=O)[C@]43C)[C@H]12`, the GI50 was 0.989 µM (active) in test [1]; 0.0167 µM (active) in [2]; < 0.01 µM (active) in test [3]; 0.0853 µM (active) in test [4]; 0.624 µM (active) in test [5]; 0.0176 µM (active) in test [6]. Moreover, the GI50 in test [7] was 0.0931 µM (active); in test [8], 0.0183 µM (active); in test [9], 0.0495 µM (active); in test [10], 0.28 µM (active); in test [11], 0.0102 µM (active); in [12], 0.0187 µM (active). Also, the GI50 was 0.113 µM (active) in [13]; < 0.01 µM (active) in [14]; 1.04 µM (active) in [15]; 0.0693 µM (active) in [16]; 0.0323 µM (active) in [17]; 0.0143 µM (active) in [18]. For the same compound, the results for the GI50 in [19] and in test [20] were 0.0131 µM (active) and 0.114 µM (active), respectively.

In the case of `O=C1CCSc2nc(-c3ccc4c(c3)OCO4)nn21`, the GI50 in [1], in [2], in [3], in test [4], in test [5] and in [6] was > 10 µM (inactive) throughout. Moreover, the GI50 in test [7], in test [8], in test [9], in test [10], in test [11] and in test [12] was > 10 µM (inactive) throughout. Further, the GI50 in test [13], in test [14], in test [15], in test [16], in test [17] and in test [18] was > 10 µM (inactive) each time. Moreover, the GI50 in test [19] and in [20] was > 10 µM (inactive) each time.

For the compound `O=C(O)[C@H]1[C@@H](C2CCCCC2)O[C@@H](C2CCCCC2)O[C@H]1C(F)(F)F`, the GI50 in test [1] is 19.1 µM (inactive); in test [2], 19.4 µM (inactive); in test [3], 26.9 µM (inactive); in [4], 21.3 µM (inactive); in [5] it was 20 µM (inactive); in [6], 28.6 µM (inactive). Also, the GI50 was 17.6 µM (inactive) in test [7]; 16.9 µM (inactive) in test [8]; 19.4 µM (inactive) in test [9]; 41.8 µM (inactive) in test [10]; 52.2 µM (inactive) in test [11]; 22.9 µM (inactive) in test [12]. Further, the GI50 in test [13] was 18.7 µM (inactive); in test [14], 20.7 µM (inactive); in [15] it was 24 µM (inactive); in test [16], 20.2 µM (inactive); in [17], 20.5 µM (inactive); in [18] it was 28.8 µM (inactive). Moreover, the GI50 is 22 µM (inactive) in test [19] and 32.7 µM (inactive) in test [20].

On to `CC(NC(=O)/C(=C/c1ccccc1)NC(=O)c1ccccc1)C(=O)O` (configuration not stated), for which the GI50 is 96.4 µM (inactive) in test [1]; 38.8 µM (inactive) in test [2]; 77.1 µM (inactive) in [3]; 47.4 µM (inactive) in [4]; > 100 µM (inactive) in test [5]; > 100 µM (inactive) in [6]. For the same compound, the GI50 in test [7] is > 100 µM (inactive); in [8], 55.8 µM (inactive); in [9], > 100 µM (inactive); in test [10], > 100 µM (inactive); in test [11] it was > 100 µM (inactive); in test [12], > 100 µM (inactive). Further, the GI50 is 24.1 µM (inactive) in [13]; 37.6 µM (inactive) in test [14]; > 100 µM (inactive) in test [15]; > 100 µM (inactive) in test [16]; 29.7 µM (inactive) in test [17]; 91.2 µM (inactive) in test [18]. The results for the GI50 in test [19] and in [20] were 50 µM (inactive) and > 100 µM (inactive), respectively.

On to `CCOC(=O)C#Cc1cccc(C#CC(=O)OCC)c1`, for which the GI50 in test [1] is 1.65 µM (inactive); in [2], 4.59 µM (inactive); in test [3], 1.8 µM (inactive); in test [4], 3.66 µM (inactive); in test [5], 0.624 µM (active); in test [6] it was 5.14 µM (inactive). In addition, the GI50 in test [7] was 6.21 µM (inactive); in test [8], 2.32 µM (inactive); in test [9] it was 5.33 µM (inactive); in test [10] it was 6.52 µM (inactive); in [11], 15.8 µM (inactive); in [12], 5.31 µM (inactive). In addition, the GI50 in test [13] was 0.0248 µM (active); in test [14], 0.506 µM (active); in test [15], 5.69 µM (inactive); in [16] it was 6.52 µM (inactive); in test [17] it was 4.93 µM (inactive); in test [18], 2.37 µM (inactive). Besides, the GI50 in [19] is 6.98 µM (inactive); in test [20], 10.2 µM (inactive).

Turning to `N=C(N)N/N=C/c1c(-c2ccc([N+](=O)[O-])cc2)nc2n1CCS2`, the GI50 was 18 µM (inactive) in test [1]; 14.8 µM (inactive) in test [2]; 8.36 µM (inactive) in [3]; 14.3 µM (inactive) in test [4]; 6.32 µM (inactive) in [5]; 17.9 µM (inactive) in test [6]. Moreover, the GI50 in [7] is 13.2 µM (inactive); in test [8], 11.9 µM (inactive); in [9], 17.3 µM (inactive); in [10], 14.6 µM (inactive); in test [11], 10.6 µM (inactive); in [12], 8.51 µM (inactive). Also, the GI50 in [13] is 6.04 µM (inactive); in [14], 2.25 µM (inactive); in test [15], 20.5 µM (inactive); in test [16] it was 9.55 µM (inactive); in [17], 17.5 µM (inactive); in test [18], 7.87 µM (inactive). The GI50 in test [19] is 11 µM (inactive); in test [20], 18.5 µM (inactive).

As to `CC(C)(C)N/N=C(\C(=O)Nc1ccc([N+](=O)[O-])cc1[N+](=O)[O-])c1nc2ccc([N+](=O)[O-])cc2nc1O`, the GI50 in test [1] is 31.5 µM (inactive); in [2], > 100 µM (inactive); in test [3] it was 47.3 µM (inactive); in test [4], 86.1 µM (inactive); in test [5], 37.1 µM (inactive); in test [6], > 100 µM (inactive). Moreover, the GI50 in test [7] is 96.4 µM (inactive); in test [8] it was > 100 µM (inactive); in [9], > 100 µM (inactive); in [10] it was > 100 µM (inactive); in test [11], 66.7 µM (inactive); in test [12], > 100 µM (inactive). The GI50 in [13] is > 100 µM (inactive); in test [14], 31.3 µM (inactive); in test [16], > 100 µM (inactive); in test [17] it was > 100 µM (inactive); in test [18] it was 68.5 µM (inactive); in test [19], 48.5 µM (inactive). Besides, the GI50 in test [20] is > 100 µM (inactive).
